In patent US5620676A, “Biologically active ATP analogs” (priority 1995, dated 1997):
Entries after “also recorded” stand apart in the source; their conditions may differ. Read-outs that look alike come from different tables or passages of the source.

How the values were obtained:
[1] = target: T1, P2Y receptor (turkey erythrocyte membranes) (Meleagris gallopavo, UniProt P49652); experiment: Stimulation of phospholipase C (inositol phosphate formation) in turkey erythrocyte membranes; format: biochemical
T1 construct: from tissue; host or cells: washed turkey erythrocytes, ghosts prepared by hypotonic lysis
T1 sequence (P49652 whole entry): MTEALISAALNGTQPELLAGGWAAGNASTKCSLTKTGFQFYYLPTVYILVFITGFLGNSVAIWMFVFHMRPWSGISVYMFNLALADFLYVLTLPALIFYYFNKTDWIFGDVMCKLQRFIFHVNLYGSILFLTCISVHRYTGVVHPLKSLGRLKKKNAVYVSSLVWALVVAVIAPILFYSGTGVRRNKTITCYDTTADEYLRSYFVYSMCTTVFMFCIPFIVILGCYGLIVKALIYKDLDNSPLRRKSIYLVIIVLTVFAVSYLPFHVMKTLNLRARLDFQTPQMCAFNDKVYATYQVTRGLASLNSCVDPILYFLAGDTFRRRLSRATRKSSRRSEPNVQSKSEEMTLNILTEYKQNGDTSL
Protocol: Phospholipase C activity: Stimulation of inositol phosphate formation by compounds of the present invention was measured in turkey erythrocyte membranes as described by Harden et al., supra and Boyer et al., supra. The K0.5 values were averaged from 3-8 independently determined dose-response curves for each compound. Briefly, one ml of washed turkey erythrocytes was incubated in inositol-free medium (DMEM; Gibco) with 0.5-1 mCi of 2-[^3 H]myoinositol (20 Ci/mmol; American Radiolabeled Chemicals Inc., St. Louis, Mo.)for 18-24 h in a humidified atmosphere of 95% air 5% CO2 at 37° C. Erythrocyte ghosts were prepared by rapid lysis in hypotonic buffer (5 mM sodium phosphate, pH 7.4, 5 mM MgCl2, 1 mM EGTA) as described by Boyer et al., supra. Phospholipase C activity was measured in 25 μl of [^3 H]inositol-labeled ghosts (≈175 μg of protein, 200-500,000 cpm/assay) in a medium containing 424 μM CaC12, 0.91 mM MgSO4, 2 mM EGTA, 115 mM KCl, 5 mM KH2 PO4, and 10 mM Hepes, pH 7.0. Assay (100 μl or 200 μl final volume) contained 1 μM GTPγS and the indicated concentrations of nucleotide analogs. Ghosts were incubated at 30° C. for 5 min, and total [^3 H]inositol phosphates were quantitated after purification by anion exchange chromatography according to Harden et al. (supra) and Boyer et al. (supra).
(§1) Phospholipase C activity and muscle relaxation/contraction effects were assessed using the methods recited in Example 3. In FIGS. 10-12, which present the result of assays of phospholipase C activity in turkey erythrocyte membranes, the x-axis is marked in units of the log of the molar concentration of the putative P2Y receptor agonist tested and the y-axis is marked in units of the percentage of maximum production of [^3 H]-inositol phosphate generated. In FIG. 13, the x-axis is marked in units of the negative log of the molar concentration of applied putative P2Y receptor agonists and the y-axis is marked in units of the percentage relaxation of the 50 nM carbachol-induced contraction of guinea pig taenia coli. In FIG. 14, the x-axis is also marked in units of the negative log of the molar concentration of applied putative P2Y receptor agonists and the y-axis is marked in units of the percentage relaxation of the 1 μM noradrenalin-induced contraction of rabbit aorta endothelium. In FIGS. 15-16, the x-axis is marked in units of the negative log of the molar concentration of applied putative p^2X receptor agonists and the y-axis is marked in units of the percentage contraction relative to a standard dose of KCl (i.e., 60 mM), as assessed in guinea pig isolated urinary bladder detrussor muscle (FIG. 15) and guinea pig isolated vas deferens (FIG. 16).

[2] = target: T2, P2Y receptor (taenia coli) (Cavia porcellus, UniProt P59902); experiment: Relaxation of carbachol-contracted guinea pig taenia coli
T2 construct: Relaxant responses mediated via P2Y receptors were examined in guinea pig taenia coli; from tissue; host or cells: guinea pig taenia coli (carbachol-contracted)
T2 sequence (P59902 whole entry): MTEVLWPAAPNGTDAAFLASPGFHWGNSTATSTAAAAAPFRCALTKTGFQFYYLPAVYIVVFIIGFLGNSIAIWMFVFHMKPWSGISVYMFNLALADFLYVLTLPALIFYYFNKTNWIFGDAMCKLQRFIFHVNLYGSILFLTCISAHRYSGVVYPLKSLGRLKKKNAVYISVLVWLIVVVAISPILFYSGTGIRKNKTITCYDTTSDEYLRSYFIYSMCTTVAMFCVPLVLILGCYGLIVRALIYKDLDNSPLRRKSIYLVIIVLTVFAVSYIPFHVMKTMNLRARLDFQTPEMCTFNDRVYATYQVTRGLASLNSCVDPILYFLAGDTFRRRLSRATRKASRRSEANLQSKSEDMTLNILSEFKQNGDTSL
Source text: Muscular relaxation/contraction: Relaxant responses mediated via P2Y receptors were examined in guinea pig taenia coli, rabbit aorta, and rabbit mesenteric artery, as described by Hoyle et al. (Br. J. Pharmacol., 107, 367-374 (1992a)), Burnstock et al., (Br. J. Pharmacol., 90, 383-391 (1987a)), and Rubino et al., (Eur. J. Pharmacol., 212, 237-240 (1992)). Contractile responses mediated via P2X receptors were examined in the guinea pig urinary bladder and vas deferens, and rabbit saphenous artery, also using standard methods (see Hoyle et al., supra., 1992; Hoyle et al., Br. J. Pharmacol., 99, 617-621 (1990); and Burnstock et al., Br. J. Pharmacol., 90, 111-120 (1987b)).
Muscular relaxation assays were performed as recited in Example 3. […] All curves are the mean of two determinations except for 5'-ATP (n=38), 2-hexylthio-ATP (n=4), 2-(5-hexenyl)thio-ATP (n=3), and 2-(2-4-nitrophenylethyl)thio-AMP (n=5). […] The pD2 value for 2-methylthio-ATP is 8.0±0.15, as reported by Hoyle et al., in Receptor Data for Biological Experiments, (H. N. Doods and J. C. A. Van Meel, eds., 1992b) at pp. 54-61.
as §1

[3] = test system: P2Y receptor (aorta endothelium); experiment: Relaxation of noradrenalin-contracted rabbit aorta; settings: rabbit aorta; log molar units
[4] = target: P2Y receptor (mesenteric artery); experiment: Relaxation of rabbit mesenteric artery; settings: log molar units
[5] = target: T3, P2X receptor (vas deferens) (Cavia porcellus, UniProt A0A286XVA9); experiment: Contraction of guinea pig isolated vas deferens
T3 sequence (A0A286XVA9 1-399): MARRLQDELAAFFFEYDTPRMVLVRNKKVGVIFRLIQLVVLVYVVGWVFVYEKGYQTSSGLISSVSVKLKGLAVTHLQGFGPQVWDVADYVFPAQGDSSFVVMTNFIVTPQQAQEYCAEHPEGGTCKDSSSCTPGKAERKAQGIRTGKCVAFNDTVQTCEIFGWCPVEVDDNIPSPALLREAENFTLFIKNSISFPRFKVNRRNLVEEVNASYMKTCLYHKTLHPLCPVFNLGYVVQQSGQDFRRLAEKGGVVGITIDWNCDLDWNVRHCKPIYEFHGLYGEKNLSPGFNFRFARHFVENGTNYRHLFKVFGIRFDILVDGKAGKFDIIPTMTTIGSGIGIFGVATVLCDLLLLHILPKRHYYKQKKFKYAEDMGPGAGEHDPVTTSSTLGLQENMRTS

[6] = turkey erythrocyte membranes, mean ± S.E.M. for at least 2 determinations, read-out: phosphatidyl inositol metabolism (K0.5, nM) erythrocyte
[7] = turkey erythrocyte membranes, read-out: K0.5

SMILES	EC50 [1, 6] [nM]	activity/potency in words, turkey erythrocyte ([1]; turkey erythrocyte membranes)	relaxation pD2, aorta [3]	relaxation pD2, mes. artery [4]	also measured
CCSCCSc1nc(N)c2ncn([C@@H]3O[C@H](COP(=O)(O)O)[C@@H](O)[C@H]3O)c2n1	1000				
Cn1c(=O)c2c(ncn2C)n(CCOP(=O)(O)OP(=O)(O)OP(=O)(O)O)c1=O [1,7-dimethyl-3-(2-hydroxyethyl)xanthine triphosphate]					EC50 [1, 7]: 100000 nM
Nc1ccc(CCSc2nc(N)c3ncn([C@@H]4O[C@H](COP(=O)(O)OP(=O)(O)OP(=O)(O)O)[C@@H](O)[C@H]4O)c3n2)cc1 [2-(2-p-Aminophenylethyl)-thio-ATP, 2-[2-(p-Aminophen)ethylthio]adenosine 5'-triphosphate]	1.53 ± 0.21	at least two orders of magnitude more potent			EC50 [1, 7]: 5 to 30 nM
Nc1nc(SCCc2ccc([N+](=O)[O-])cc2)nc2c1ncn2[C@@H]1O[C@H](COP(=O)(O)O)[C@@H](O)[C@H]1O [2-(2-p-Nitrophenylethyl)-thio-AMP, 2-[2-(p-nitrophen)ethylthio]adenosine 5'-monophosphate]	3000 ± 1200		6.1	5.0	activity/potency in words, taenia coli ([2]; guinea pig taenia coli): slightly less potent than ATP; relaxation pD2, taenia coli ([2]; guinea pig taenia coli, log molar units): 6.5
NCCCCCCCSc1nc(N)c2ncn([C@@H]3O[C@H](COP(=O)(O)OP(=O)(O)OP(=O)(O)O)[C@@H](O)[C@H]3O)c2n1 [2-(7-Aminoheptyl)thio-ATP, 2-(7-Aminoheptylthio)-adenosine-5'-triphosphate]	72.8 ± 46.6				
Nc1nc(SCCCCCCCS)nc2c1ncn2[C@@H]1O[C@H](COP(=O)(O)OP(=O)(O)OP(=O)(O)O)[C@@H](O)[C@H]1O [2-(7-Thioheptyl)thio-ATP, 2-(7-Thioheptylthio)-adenosine-5'-triphosphate]	773 ± 328				
Nc1nc(SC2CCCCC2)nc2c1ncn2[C@@H]1O[C@H](COP(=O)(O)OP(=O)(O)OP(=O)(O)O)[C@@H](O)[C@H]1O [2-Cyclohexylthio-ATP, 2-cyclohexylthio-ATP]	24 ± 4	at least two orders of magnitude more potent	6.3	5.9	EC50 [1, 7]: 5 to 30 nM; EC50 [2]: 15.8 nM
Nc1nc(SCCc2ccccc2)nc2c1ncn2[C@@H]1O[C@H](COP(=O)(O)OP(=O)(O)OP(=O)(O)O)[C@@H](O)[C@H]1O [2-Phenylethylthio-ATP, 2-phenylethylthio-ATP]	30 ± 17	at least two orders of magnitude more potent	6.5	6.2	EC50 [1, 7]: 5 to 30 nM; EC50 [2]: 79.4 nM
N#CSCCCCCCCSc1nc(N)c2ncn([C@@H]3O[C@H](COP(=O)(O)OP(=O)(O)OP(=O)(O)O)[C@@H](O)[C@H]3O)c2n1 [2-[(7-Thiocyanatoheptyl)thio]-ATP, 2-(7-Thiocyanatoheptylthio)-adenosine-5'-triphosphate]	25.9 ± 10	at least two orders of magnitude more potent			EC50 [1, 7]: 5 to 30 nM
CCCCCCCCCCSc1nc(N)c2ncn([C@@H]3O[C@H](COP(=O)(O)O)[C@@H](O)[C@H]3O)c2n1 [2-decylthio AMP]	214 ± 2				
CCCCCCCSc1nc(N)c2ncn([C@@H]3O[C@H](COP(=O)(O)O)[C@@H](O)[C@H]3O)c2n1 [2-hepylthio AMP]	1000				
CCCCCCSc1nc(N)c2ncn([C@@H]3O[C@H](COP(=O)(O)O)[C@@H](O)[C@H]3O)c2n1 [2-hexylthio AMP]	58 ± 5				
CCCCCCCCSc1nc(N)c2ncn([C@@H]3O[C@H](COP(=O)(O)O)[C@@H](O)[C@H]3O)c2n1 [2-octylthio AMP]	295 ± 6				
CCCCCSc1nc(N)c2ncn([C@@H]3O[C@H](COP(=O)(O)O)[C@@H](O)[C@H]3O)c2n1 [2-pentylthio AMP]	10000				
CCCCCCCCCCCSc1nc(N)c2ncn([C@@H]3O[C@H](COP(=O)(O)O)[C@@H](O)[C@H]3O)c2n1 [2-undecylthio AMP]	1000				
Nc1ncnc2c1ncn2[C@@H]1O[C@H](COP(=O)(O)OP(O)(O)=S)[C@@H](O)[C@H]1O [ADP-β-S, reference compound]	96 ± 27	enhanced potency relative to the parent compound; also recorded: a very high affinity for the turkey erythrocyte P2Y receptor	5.8	5.8	times more potent than ADP, turkey erythrocyte ([1]; relative to ADP): ~400 times; times more potent than ATP, turkey erythrocyte ([1]; relative to ATP): approximately 140 times; activity/potency in words, taenia coli ([2]; guinea pig taenia coli): not in the taenia coli; also recorded: no greater affinity for the P2Y receptor in the guinea-pig taenia coli than ATP or ADP
Nc1ncnc2c1ncn2[C@@H]1O[C@H](COP(=O)(O)OP(=O)(O)OP(O)(O)=S)[C@@H](O)[C@H]1O [ATP-γ-S, reference compound]	1260 ± 380	enhanced potency relative to the parent compound	5.7	5.8	activity/potency in words, taenia coli ([2]; guinea pig taenia coli): not in the taenia coli
Nc1ncnc2c1ncn2[C@@H]1O[C@H](CO)[C@@H](O)[C@H]1O [Adenosine, reference compound]			5.7	6.0	EC50 ([1]; at 10^-5 M, read-out: phosphatidyl inositol metabolism (K0.5) erythrocyte, class symbol): > 10000 nM; EC50 [2]: 126000 nM
Nc1ncnc2c1ncn2[C@@H]1O[C@H](COP(=O)(O)OP(=O)(O)NP(=O)(O)O)[C@@H](O)[C@H]1O [AppNHp, reference compound]	4450 ± 1150	equipotent with ATP in the erythrocytes	5.5	6.6	activity/potency in words, taenia coli ([2]; guinea pig taenia coli): an effect similar to methylene replacement; activity/potency in words, vas deferens [5]: an effect similar to methylene replacement
O=P(O)(O)OP(=O)(O)OP(=O)(O)OC[C@H]1O[C@@H](n2cnc3c(NCCc4ccccc4)ncnc32)[C@H](O)[C@@H]1O [N^6 -phenylethyl ATP, N^6 -phenylethyl-ATP]	7000				
Cn1c(=O)c2c(ncn2CCOP(=O)(O)OP(=O)(O)OP(=O)(O)O)n(C)c1=O [β-Hydroxyethyltheophylline triphosphate]					EC50 [1, 7]: 26900 nM
